Values after ≈ are worked out from the molar mass of the structure shown.
Tested on: A. baumannii strain ATCC19606
Test: Minimum inhibitory concentration (MIC) determination, microbroth dilution (CLSI)
Assay type: cell-based
Details: Acinetobacter baumannii; A. baumannii ATCC19606; CAMHB; read after 20 hours; >=80% growth inhibition; read-out: ATCC19606 MIC
Summary of the method: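 After 20 h at 35±2 °C, MIC taken visually and by OD 600 nm as the lowest concentration giving ≥80% growth inhibition. Bacteria (~5×10^5 CFU/ml) were tested per CLSI microbroth dilution against twofold serial compound dilutions in cation-adjusted Mueller Hinton broth.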

`CN1C(=O)[C@H](CCCCN)NC(=O)[C@H](CCCN)NCc2cnccc2Sc2c(Cl)cc(C(F)(F)F)cc2CNC(=O)[C@@H]1Cc1c[nH]c2ccccc12` [Example 156, (7S,10S,13S)— 13-((1H-Indol-3-yl)methyl)-10-(4-aminobutyl)-7-(3-aminopropyl)-20-chloro-12-methyl-18-(trifluoromethyl)-6,7,9,10,12,13,15,16-octahydrobenzo[b]pyrido[3,4-p][1,5,8,11,14]thiatetraazacycloheptadecine-8,11,14(5H)-trione] was tested. Which MIC did it give?
The MIC was 1 µg/mL (≈ 1.29 µM).

`CN1C(=O)[C@H](CCCCN)NC(=O)[C@H](CCCN)NCc2cccnc2Sc2c(Cl)cncc2CNC(=O)[C@@H]1Cc1c[nH]c2ccccc12` [Example 157, (7S,10S,13S)— 13-((1H-Indol-3-yl)methyl)-10-(4-aminobutyl)-7-(3-aminopropyl)-20-chloro-12-methyl-6,7,9,10,12,13,15,16-octahydrodipyrido[2,3-b:3′,4′-p][1,5,8,11,14]thiatetraazacycloheptadecine-8,11,14(5H)-trione] was tested. Which MIC did it give?
The MIC was 16 µg/mL (≈ 22.7 µM).

For `CN1C(=O)[C@H](CCCN)NC(=O)[C@H](CCC(N)=O)NCc2cccnc2Sc2c(Cl)cc(Cl)cc2CNC(=O)[C@@H]1Cc1c[nH]c2ccccc12` [Example 160, 3-[(11S,14S,17S)-14-(3-Amino-propyl)-23,25-dichloro-17-(1H-indol-3-ylmethyl)-16-methyl-12,15,18-trioxo-2-thia-4,10,13,16,19-pentaaza-tricyclo[19.4.0.0*3,8*]pentacosa-1(25),3(8),4,6,21,23-hexaen-11-yl]-propionamide], which MIC is on record?
Its MIC is 4 µg/mL (≈ 5.41 µM).

How did the MIC turn out when `CN1C(=O)[C@H](CCCCN)NC(=O)[C@H](CCCN)NCc2cccnc2Sc2c(Cl)cc(-c3ccnc(N4CCOCC4)c3)cc2CNC(=O)[C@@H]1Cc1c[nH]c2ccccc12` [Example 162, (11S,14S,17S)-14-(4-Amino-butyl)-11-(3-amino-propyl)-25-chloro-17-(1H-indol-3-ylmethyl)-16-methyl-23-(2-morpholin-4-yl-pyridin-4-yl)-2-thia-4,10,13,16,19-pentaaza-tricyclo[19.4.0.0*3,8*]pentacosa-1(25),3(8),4,6,21,23-hexaene-12,15,18-trione] was run?
Its MIC is 0.5 µg/mL (≈ 0.576 µM).

For `CN1C(=O)[C@H](CCCCN)NC(=O)[C@H](CCC(N)=O)NCc2cccnc2Sc2c(Cl)cc(-c3ccccn3)cc2CNC(=O)[C@@H]1Cc1c[nH]c2ccccc12` [Example 163, 3-[(11S,14S,17S)-14-(4-Amino-butyl)-25-chloro-17-(1H-indol-3-ylmethyl)-16-methyl-12,15,18-trioxo-23-pyridin-2-yl-2-thia-4,10,13,16,19-pentaaza-tricyclo[19.4.0.0*3,8*]pentacosa-1(25),3(8),4,6,21,23-hexaen-1-yl]-propionamide], which MIC is on record?
The MIC was 4 µg/mL (≈ 5.02 µM).

`CN1C(=O)[C@H](CCCCN)NC(=O)[C@H](CCCN)NCc2cccnc2Sc2c(Cl)cc(-c3ccnc(Cl)c3)cc2CNC(=O)[C@@H]1Cc1c[nH]c2ccccc12` [Example 164, (11S,14S,17S)-14-(4-Amino-butyl)-11-(3-amino-propyl)-25-chloro-23-(2-chloro-pyridin-4-yl)-17-(1H-indol-3-ylmethyl)-16-methyl-2-thia-4,10,13,16,19-pentaaza-tricyclo[19.4.0.0*3,8*]pentacosa-1(21),3,5,7,22,24-hexaene-12,15,18-trione] was tested. Which MIC did it give?
The MIC was 0.25 µg/mL (≈ 0.306 µM).

`CN1C(=O)[C@H](CCCCN)NC(=O)[C@H](CCCN)NCc2cccnc2Sc2c(Cl)cc(-c3ccc(O)nc3)cc2CNC(=O)[C@@H]1Cc1c[nH]c2ccccc12` [Example 165, (11S,14S,17S)-14-(4-Amino-butyl)-11-(3-amino-propyl)-25-chloro-23-(6-hydroxy-pyridin-3-yl)-17-(1H-indol-3-ylmethyl)-16-methyl-2-thia-4,10,13,16,19-pentaaza-tricyclo[19.4.0.0*3,8*]pentacosa-1(25),3(8),4,6,21,23-hexaene-12,15,18-trione] was tested. Which MIC did it give?
Its MIC is 4 µg/mL (≈ 5.01 µM).

`CN(C)c1ccc(-c2cc(Cl)c3c(c2)CNC(=O)[C@H](Cc2c[nH]c4ccccc24)N(C)C(=O)[C@H](CCCCN)NC(=O)[C@H](CCCN)NCc2cccnc2S3)cn1` [Example 166, (11S,14S,17S)-14-(4-Amino-butyl)-11-(3-amino-propyl)-25-chloro-23-(6-dimethylamino-pyridin-3-yl)-17-(1H-indol-3-ylmethyl)-16-methyl-2-thia-4,10,13,16,19-pentaaza-tricyclo[19.4.0.0*3,8*]pentacosa-1(25),3(8),4,6,21,23-hexaene-12,15,18-trione] was tested. Which MIC did it give?
Its MIC is 0.5 µg/mL (≈ 0.606 µM).

How did the MIC turn out when `Cc1cc(-c2cc3c(cn2)Sc2ncccc2CN[C@@H](CCCN)C(=O)N[C@@H](CCCCN)C(=O)N(C)[C@@H](Cc2c[nH]c4ccccc24)C(=O)NC3)ccn1` [Example 167, (7S,10S,13S)-13-((1H-Indol-3-yl)methyl)-10-(4-aminobutyl)-7-(3-aminopropyl)-12-methyl-18-(2-methylpyridin-4-yl)-6,7,9,12,13,15,16-octahydrodipyrido[2,3-b:4′,3′-p][1,5,8,11,14]thiatetraazacycloheptadecine-8,11,14(5H)-trione] was run?
Its MIC is 32 µg/mL (≈ 41.9 µM).

For `Cc1noc(C)c1-c1cc(Cl)c2c(c1)CNC(=O)[C@H](Cc1c[nH]c3ccccc13)N(C)C(=O)[C@H](CCCCN)NC(=O)[C@H](CCC(N)=O)NCc1cccnc1S2` [Example 169, 3-[(11S,14S,17S)-14-(4-Amino-butyl)-25-chloro-23-(3,5-dimethyl-isoxazol-4-yl)-17-(1H-indol-3-ylmethyl)-16-methyl-12,15,18-trioxo-2-thia-4,10,13,16,19-pentaaza-tricyclo[19.4.0.0*3,8*]pentacosa-1(25),3(8),4,6,21,23-hexaen-11-yl]-propionamide], which MIC is on record?
The MIC was 4 µg/mL (≈ 4.91 µM).

For `Cc1cc(-c2cc(Cl)c3c(c2)CNC(=O)[C@H](Cc2c(C)[nH]c4ccccc24)N(C)C(=O)[C@H](CCCCN)NC(=O)[C@H](CCCN)NCc2cccnc2S3)ccn1` [Example 170, (11S,14S,17S)-14-(4-Amino-butyl)-11-(3-amino-propyl)-25-chloro-16-methyl-17-(2-methyl-1H-indol-3-ylmethyl)-23-(2-methyl-pyridin-4-yl)-2-thia-4,10,13,16,19-pentaaza-tricyclo[19.4.0.0*3,8*]pentacosa-1(25),3(8),4,6,21,23-hexaene-12,15,18-trione], which MIC is on record?
Its MIC is 0.5 µg/mL (≈ 0.617 µM).

With `COc1cc(-c2cc(Cl)c3c(c2)CNC(=O)[C@H](Cc2c(C)[nH]c4ccccc24)N(C)C(=O)[C@H](CCCCN)NC(=O)[C@H](CCCN)NCc2cccnc2S3)ccn1` [Example 171, (11S,14S,17S)-14-(4-Amino-butyl)-11-(3-amino-propyl)-25-chloro-23-(2-methoxy-pyridin-4-yl)-16-methyl-17-(2-methyl-1H-indol-3-ylmethyl)-2-thia-4,10,13,16,19-pentaaza-tricyclo[19.4.0.0*3,8*]pentacosa-1(25),3(8),4,6,21,23-hexaene-12,15,18-trione] as the compound, how does the MIC read?
The MIC was 0.5 µg/mL (≈ 0.605 µM).

`CN1C(=O)[C@H](CCCCN)NC(=O)[C@H](CCCN)NCc2cccnc2Sc2c(Cl)cc(-c3ccc(S(C)(=O)=O)cc3)cc2CNC(=O)[C@@H]1Cc1c[nH]c2ccccc12` [Example 172, (11S,14S,17S)-14-(4-Amino-butyl)-11-(3-amino-propyl)-25-chloro-17-(1H-indol-3-ylmethyl)-23-(4-methanesulfonyl-phenyl)-16-methyl-2-thia-4,10,13,16,19-pentaaza-tricyclo[19.4.0.0*3,8*]pentacosa-1(25),3(8),4,6,21,23-hexaene-12,15,18-trione] was tested. Which MIC did it give?
The MIC was 0.5 µg/mL (≈ 0.582 µM).

For `CN1C(=O)[C@H](CCCCN)NC(=O)[C@H](CCCN)NCc2cccnc2Sc2c(Cl)cc(-c3cncc(S(C)(=O)=O)c3)cc2CNC(=O)[C@@H]1Cc1c[nH]c2ccccc12` [Example 173, (11S,14S,17S)-14-(4-Amino-butyl)-11-(3-amino-propyl)-25-chloro-17-(1H-indol-3-ylmethyl)-23-(5-methanesulfonyl-pyridin-3-yl)-16-methyl-2-thia-4,10,13,16,19-pentaaza-tricyclo[19.4.0.0*3,8*]pentacosa-1(25),3(8),4,6,21,23-hexaene-12,15,18-trione], which MIC is on record?
Its MIC is 2 µg/mL (≈ 2.32 µM).

`CN1C(=O)[C@H](CCCCN)NC(=O)[C@H](CCCN)NCc2cccnc2Sc2c(Cl)cc(N3CCC(N)C3)cc2CNC(=O)[C@@H]1Cc1c[nH]c2ccccc12` (stereo partly drawn) [Example 174, (11S,14S,17S)-14-(4-Amino-butyl)-11-(3-amino-propyl)-23-(3-amino-pyrrolidin-1-yl)-25-chloro-17-(1H-indol-3-ylmethyl)-16-methyl-2-thia-4,10,13,16,19-pentaaza-tricyclo[19.4.0.0*3,8*]pentacosa-1(25),3(8),4,6,21,23-hexaene-12,15,18-trione] was tested. Which MIC did it give?
Its MIC is 16 µg/mL (≈ 20.3 µM).

For `Cc1n[nH]c(C)c1-c1cc(Cl)c2c(c1)CNC(=O)[C@H](Cc1c[nH]c3ccccc13)N(C)C(=O)[C@H](CCCCN)NC(=O)[C@H](CCCN)NCc1cccnc1S2` [Example 175, (11S,14S,17S)-14-(4-Amino-butyl)-11-(3-amino-propyl)-25-chloro-23-(3,5-dimethyl-1H-pyrazol-4-yl)-17-(1H-indol-3-ylmethyl)-16-methyl-2-thia-4,10,13,16,19-pentaaza-tricyclo[19.4.0.0*3,8*]pentacosa-1(25),3(8),4,6,21,23-hexaene-12,15,18-trione], which MIC is on record?
The MIC was 2 µg/mL (≈ 2.5 µM).

For `CN1C(=O)[C@H](CCCCN)NC(=O)[C@H](CCCN)NCc2cccnc2Sc2c(Cl)cc(-c3ccnc(F)c3)cc2CNC(=O)[C@@H]1Cc1c[nH]c2ccccc12` [Example 177, (11S,14S,17S)-14-(4-Amino-butyl)-11-(3-amino-propyl)-25-chloro-23-(2-fluoro-pyridin-4-yl)-17-(1H-indol-3-ylmethyl)-16-methyl-2-thia-4,10,13,16,19-pentaaza-tricyclo[19.4.0.0*3,8*]pentacosa-1(25),3(8),4,6,21,23-hexaene-12,15,18-trione], which MIC is on record?
The MIC was 1 µg/mL (≈ 1.25 µM).

How did the MIC turn out when `Cc1ccc(-c2cc3c(cn2)Sc2ncccc2CN[C@@H](CCCN)C(=O)N[C@@H](CCCCN)C(=O)N(C)[C@@H](Cc2c[nH]c4ccccc24)C(=O)NC3)cn1` [Example 178, (7S,10S,13S)-13-((1H-Indol-3-yl)methyl)-10-(4-aminobutyl)-7-(3-aminopropyl)-12-methyl-18-(6-methylpyridin-3-yl)-6,7,9,10,12,13,15,16-octahydrodipyrido[2,3-b:4′,3′-p][1,5,8,11,14]thiatetraazacycloheptadecine-8,11,14(5H)-trione] was run?
Its MIC is 32 µg/mL (≈ 41.9 µM).

— patent US10030047B2 (Hoffmann-La Roche Inc., priority 2015, dated 2018)
